According to ChEMBL document CHEMBL4033686, “Phenylbenzenesulfonates and -sulfonamides as 17β-hydroxysteroid dehydrogenase type 2 inhibitors: Synthesis and SAR-analysis” (Bioorg Med Chem Lett, 2017):

Key:
Format in all cases: cell-based
[1] = target: T1, 17-beta-hydroxysteroid dehydrogenase type 2 (Homo sapiens) (UniProt P37059); test: Inhibition of recombinant human 17beta-HSD2 expressed in HEK293 cells assessed as residual activity at 20 uM using estradiol as substrate after 10 mins in presence of radiolabeled tracer substrate by scintillation counting method relative to control
T1 sequence (whole entry): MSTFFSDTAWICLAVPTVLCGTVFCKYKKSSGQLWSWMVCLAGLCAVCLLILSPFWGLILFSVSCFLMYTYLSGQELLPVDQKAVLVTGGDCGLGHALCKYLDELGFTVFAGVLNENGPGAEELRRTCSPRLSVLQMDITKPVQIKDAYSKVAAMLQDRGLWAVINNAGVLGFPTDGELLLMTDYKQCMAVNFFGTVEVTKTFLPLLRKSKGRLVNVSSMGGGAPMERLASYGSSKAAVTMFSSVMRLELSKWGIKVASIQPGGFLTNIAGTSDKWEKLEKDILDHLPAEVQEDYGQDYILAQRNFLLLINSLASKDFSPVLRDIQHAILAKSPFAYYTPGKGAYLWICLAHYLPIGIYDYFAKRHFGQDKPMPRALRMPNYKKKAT

[2] = target: T2, 17-beta-hydroxysteroid dehydrogenase type 2 (Homo sapiens, UniProt P37059); test: Inhibition of recombinant human 17beta-HSD2 expressed in HEK293 cells using estradiol as substrate after 10 mins in presence of radiolabeled tracer substrate by scintillation counting method
T2 sequence (P37059 whole entry): T1 sequence (whole entry)

[3] = target: T3, 17-beta-hydroxysteroid dehydrogenase type 1 (Homo sapiens) (UniProt P14061); test: Inhibition of recombinant human 17beta-HSD1 expressed in HEK293 cells assessed as residual activity at 20 uM using estrone as substrate after 10 mins in presence of radiolabeled tracer substrate by scintillation counting method relative to control
T3 sequence (whole entry): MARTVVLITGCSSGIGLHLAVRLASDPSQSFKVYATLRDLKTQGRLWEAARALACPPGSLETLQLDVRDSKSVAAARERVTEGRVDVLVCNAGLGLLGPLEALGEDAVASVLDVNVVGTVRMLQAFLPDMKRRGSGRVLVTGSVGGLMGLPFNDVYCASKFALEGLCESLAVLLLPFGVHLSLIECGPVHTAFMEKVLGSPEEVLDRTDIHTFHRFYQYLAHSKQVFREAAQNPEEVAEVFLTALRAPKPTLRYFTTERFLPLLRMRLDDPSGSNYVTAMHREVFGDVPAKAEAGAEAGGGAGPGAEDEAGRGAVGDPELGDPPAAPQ

[4] = target: 11-beta-hydroxysteroid dehydrogenase 1 (Homo sapiens) (UniProt P28845); test: Inhibition of recombinant human 11beta-HSD1 expressed in HEK293 cells assessed as residual activity at 20 uM using cortisone as substrate after 10 mins in presence of radiolabeled tracer substrate by scintillation counting method relative to control
[5] = target: T4, 11beta-HSD2 (11-beta-hydroxysteroid dehydrogenase type 2) (Homo sapiens, UniProt P80365); test: Inhibition of recombinant human 11beta-HSD2 expressed in HEK293 cells assessed as residual activity at 20 uM using cortisol as substrate after 10 mins in presence of radiolabeled tracer substrate by scintillation counting method relative to control; settings: HEK293 cells expressing recombinant human 11beta-HSD2, probe cortisol, read-out: Activity
T4 sequence (P80365 whole entry): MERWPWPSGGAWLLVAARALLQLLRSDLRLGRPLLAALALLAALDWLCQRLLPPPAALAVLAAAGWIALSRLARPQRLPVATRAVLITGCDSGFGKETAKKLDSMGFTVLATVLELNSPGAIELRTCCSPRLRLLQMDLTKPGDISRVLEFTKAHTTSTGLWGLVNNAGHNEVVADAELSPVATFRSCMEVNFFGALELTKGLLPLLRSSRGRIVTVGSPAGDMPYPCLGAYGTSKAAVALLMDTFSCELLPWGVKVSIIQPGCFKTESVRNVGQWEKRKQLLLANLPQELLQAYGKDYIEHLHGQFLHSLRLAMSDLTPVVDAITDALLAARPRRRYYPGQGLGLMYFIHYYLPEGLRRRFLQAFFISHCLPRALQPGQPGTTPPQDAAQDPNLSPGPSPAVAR

Homo sapiens [6] = species: Homo sapiens; test: Selectivity index, ratio of compound effect for inhibition of recombinant human 17beta-HSD1 expressed in HEK293 cells assessed as residual activity to compound effect for inhibition of 17beta-HSD2 expressed in HEK293 cells assessed as residual activity
Homo sapiens [7] = species: Homo sapiens; test: Selectivity index, ratio of compound effect for inhibition of recombinant human 11beta-HSD1 expressed in HEK293 cells assessed as residual activity to compound effect for inhibition of 17beta-HSD2 expressed in HEK293 cells assessed as residual activity
Homo sapiens [8] = species: Homo sapiens; test: Selectivity index, ratio of compound effect for inhibition of recombinant human 11beta-HSD2 expressed in HEK293 cells assessed as residual activity to compound effect for inhibition of 17beta-HSD2 expressed in HEK293 cells assessed as residual activity

11-beta-hydroxysteroid dehydrogenase 1 (Homo sapiens), sequence (P28845 whole entry, looked up): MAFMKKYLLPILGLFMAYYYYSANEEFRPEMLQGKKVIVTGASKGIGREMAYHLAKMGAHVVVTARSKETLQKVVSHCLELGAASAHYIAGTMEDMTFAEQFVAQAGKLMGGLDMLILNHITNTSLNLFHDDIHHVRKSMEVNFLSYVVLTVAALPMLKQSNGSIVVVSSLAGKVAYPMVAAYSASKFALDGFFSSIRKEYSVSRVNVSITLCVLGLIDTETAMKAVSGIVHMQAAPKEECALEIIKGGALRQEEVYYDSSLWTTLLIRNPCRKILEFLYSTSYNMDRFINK

SMILES	Activity [1] [%]	IC50 [2] [µM]	Activity [3] [%]	Activity [4] [%]	activity at 10 min, 20 µM [5] [%]	Selectivity Index (Homo sapiens [6])	Selectivity Index (Homo sapiens [7])	Selectivity Index (Homo sapiens [8])
CC(C)(C)c1ccc(S(=O)(=O)Nc2c(O)ccc3ccccc23)cc1	7	2.9	46	21	21	8.6	3	3
Cc1cc(N)c(NS(=O)(=O)c2ccc(C(C)(C)C)cc2)cc1C	58							
CC(C)(C)c1ccc(S(=O)(=O)Nc2cc(Cl)c(Cl)cc2N)cc1	11	4.65	23	74	21	2.1	6.7	1.9
Cc1cc(C)c(O)c(NS(=O)(=O)c2ccc(C(C)(C)C)cc2)c1	18	5.19	19	43	37	1.1	2.4	2.1
Cc1cc(C)c(OS(=O)(=O)c2ccc(C(C)(C)C)cc2)c(N)c1	49							
CC(C)(C)c1ccc(S(=O)(=O)Oc2ccc3ccccc3c2N)cc1	43							
CC(C)(C)c1ccc(S(=O)(=O)Oc2ccccc2N)cc1	33							
CC(C)(C)c1ccc(S(=O)(=O)Oc2ccc(Cl)cc2N)cc1	44							
CC(C)(C)c1ccc(S(=O)(=O)Oc2ccc(-c3ccccc3)cc2N)cc1	86							
Cc1ccc(N)c(OS(=O)(=O)c2ccc(C(C)(C)C)cc2)c1	36							
Cc1cc(S(=O)(=O)Nc2cccc(O)c2)c(C)cc1Cl	10							
O=c1cc(-c2ccc(O)cc2)oc2cc(O)cc(O)c12			11					
Cc1ccc(OS(=O)(=O)c2ccc(C(C)(C)C)cc2)c(N)c1	37							
CC(C)(C)c1ccc(S(=O)(=O)Nc2ccccc2N)cc1	46							

Further lines, with some results ahead:

Activity [1] [%]	IC50 [2] [µM]	Activity [3] [%]	Activity [4] [%]	activity at 10 min, 20 µM [5] [%]	SMILES	Selectivity Index (Homo sapiens [6])	Selectivity Index (Homo sapiens [7])	Selectivity Index (Homo sapiens [8])
2	1.25	13	62	3	CC(C)(C)c1ccc(S(=O)(=O)Nc2cc(-c3ccccc3)ccc2O)cc1	6.5	31	1.5
5	1.23	41	37	83	CC(C)(C)c1ccc(S(=O)(=O)Nc2ccccc2O)cc1	8.2	7.4	16.6
36		56	26	97	CC(C)(C)c1ccc(S(=O)(=O)Nc2ccc(F)cc2N)cc1	1.6	0.7	2.7
13	4.09	38	46	63	Cc1ccc(O)c(NS(=O)(=O)c2ccc(C(C)(C)C)cc2)c1	2.9	3.5	4.8
22	4.4	35	24	62	Cc1ccc(NS(=O)(=O)c2ccc(C(C)(C)C)cc2)c(O)c1	1.6	1.1	2.8
6	0.8	15	35	7	CC(C)(C)c1ccc(S(=O)(=O)Nc2cc(Cl)ccc2O)cc1	2.5	5.8	1.2
22 to 28	5.58	46	28	75	CC(C)(C)c1ccc(S(=O)(=O)Nc2cc(Cl)ccc2N)cc1	2.1	1.3	3.4
35					CC(C)(C)c1ccc(S(=O)(=O)Nc2ccc(Cl)cc2N)cc1			
